Earlier results as cited in patent publication US20150297556A1 (priority 2014, published 2015).

With “(1S,5S)-2,6,6-Trimethylbicyclo[3.1.1]hept-2-ene ((−)-α-Pinene)” as the substance, how does the human pulmonary uptake read?
The human pulmonary uptake was 60%.
